Tests used:
His6-GlgX = assay: DRaCALA with [32P]-c-di-GMP, wild-type GlgX; assay type: binding, Streptomyces venezuelae
Experimental: Fig. 1 GlgX binds c-di-GMP. a Quantification of c-di-GMP in S. venezuelae cell extracts using LC-MS/MS. Cells were harvested during late vegetative growth (8–10 h), transition to sporulation (12–16 h), and sporulation (18–20 h). Data are presented as the mean of biological replicates ±SD (n = 3). […] Source data are provided in the Source data file. c [^32P]-c-di-GMP binds to GlgX in DRaCALA assay indicated by dark spots in the center of the nitrocellulose membrane. For competition, excess (100 µM) of unlabeled c-di-GMP, c-di-AMP, or GTP was added to the reaction containing [^32P]-c-di-GMP and GlgX.
To determine if the interaction between Vnz29170 (herein called GlgX) and c-di-GMP is direct, we purified an N-terminally His6-tagged GlgX protein and performed nano differential scanning fluorimetry (nanoDSF) thermal shift assays. […] In addition, we used differential radial capillary action of ligand assays (DRaCALA), which allows visualization of protein-bound radiolabeled ligand as a central spot after the application of the protein-ligand mix onto nitrocellulose. Using DRaCALA we confirmed that GlgX from S. venezuelae binds ^32P-labeled c-di-GMP.
For DRaCALA assays, purified His6-GlgX (15 μg) was mixed with 0.5 μl undiluted [^32P]-c-di-GMP (42 nM) (Hartmann Analytic GmbH, Braunschweig) in binding buffer (25 mM Tris pH 8; 150 mM NaCl; 2.5% (v/v) glycerol; 5 mM MgCl2) and the reaction was incubated at rt for 5 min. For competition assays, 100 μM nonlabeled nucleotides were added to the samples and incubated at rt for 5 min prior to the addition of [^32P]-c-di-GMP. Reactions (10 μl) were spotted on the same nitrocellulose membrane (Roth), air dried for 10 min and analyzed via phosphorimaging.

GlgX = GlgX (Streptomyces venezuelae, UniProt F2RAW5); assay: Microscale thermophoresis (MST); assay type: binding; details: 40 nM RED-NHS labeled GlgX, unlabeled c-di-GMP, n=2
Experimental: For MST experiments, purified GlgX was labeled using Monolith NT protein labeling kit RED-NHS (amine reactive) dye (NanoTemper Technologies GmbH) according to manufacturer´s guidelines. The protein concentration was adjusted to 20 μM in labeling buffer and the labeling reaction was carried out at rt for 30 min in the dark. Excess fluorescence dye was subsequently removed from the labeled protein by gel filtration using a dye removal column provided by the supplier and equilibrated with MST buffer (25 mM Tris pH 8, 150 mM NaCl, 2.5% (v/v) glycerol, 5 mM MgCl2, 0.05% (v/v) Tween). A UV/VIS spectrophotometry at 650 and 280 nm was used to determine the degree of labeling. Next, labeled GlgX was adjusted to 80 nM in MST buffer and a series of 16 1:2 dilutions of c-di-GMP (BioLog) were prepared using the same buffer. An equal volume of protein and c-di-GMP dilutions were mixed resulting in 16 samples with 40 nM protein each and c-di-GMP concentrations ranging from 2 mM to […]. Samples were then loaded into Monolith NT.115 Premium Capillaries (NanoTemper Technologies) and MST was measured using a Monolith NT.115 instrument (NanoTemper Technologies). Instrument parameters were set to 20% LED power and 40% MST power and the data were analyzed using MO.Affinity Analysis software version 2.3; NanoTemper Technologies. […]

Chain of GlgX (F2RAW5 entry or part of it): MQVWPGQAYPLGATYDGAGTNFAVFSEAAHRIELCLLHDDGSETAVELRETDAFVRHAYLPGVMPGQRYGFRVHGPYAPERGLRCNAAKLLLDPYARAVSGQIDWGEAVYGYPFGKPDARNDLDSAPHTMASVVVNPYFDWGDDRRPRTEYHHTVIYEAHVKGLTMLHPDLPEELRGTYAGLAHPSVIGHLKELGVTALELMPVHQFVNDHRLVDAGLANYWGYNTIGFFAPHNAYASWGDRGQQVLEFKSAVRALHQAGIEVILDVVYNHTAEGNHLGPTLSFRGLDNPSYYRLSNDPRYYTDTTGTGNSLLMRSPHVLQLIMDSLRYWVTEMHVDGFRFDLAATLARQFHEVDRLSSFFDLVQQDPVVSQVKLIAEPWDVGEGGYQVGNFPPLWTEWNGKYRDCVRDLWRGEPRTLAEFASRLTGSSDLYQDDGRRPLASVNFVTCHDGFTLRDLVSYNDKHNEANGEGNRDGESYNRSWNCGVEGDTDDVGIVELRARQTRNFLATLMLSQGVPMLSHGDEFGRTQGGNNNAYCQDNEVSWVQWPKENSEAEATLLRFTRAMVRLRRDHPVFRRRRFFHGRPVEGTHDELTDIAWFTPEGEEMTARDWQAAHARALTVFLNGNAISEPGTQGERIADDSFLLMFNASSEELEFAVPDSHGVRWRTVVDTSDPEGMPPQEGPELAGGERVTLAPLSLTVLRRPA

Nc1nc2c(ncn2[C@@H]2O[C@@H]3CO[P@](=O)(O)O[C@H]4[C@@H](O)[C@H](n5cnc6c(=O)[nH]c(N)nc65)O[C@@H]4CO[P@](=O)(O)O[C@H]3[C@H]2O)c(=O)[nH]1 [c-di-GMP, bis-(3′−5′)-cyclic diguanosine monophosphate]
binding of 32P-labeled c-di-GMP in DRaCALA (His6-GlgX; 15 µg His6-GlgX, [32P]-c-di-GMP): binds
competition with 32P-c-di-GMP for binding to GlgX (His6-GlgX; excess (100 µM) unlabeled nucleotide): competed
Kd (GlgX): 8.3 µM

Source: article PMC9530166, “Allosteric regulation of glycogen breakdown by the second messenger cyclic di-GMP” (Nature Communications, 2022)
